From PubChem BioAssay AID977614 (Broad Institute, 2014)
Calls of active or inactive are those of the source.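 Rule for the calls: active = parasite count per well reduced by over 3 SD from the mean, with host cell number above 80% of untreated; inactive = the rest.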

What follows are compounds tested on L. donovani amastigotes in THP-1 macrophages, DAPI imaging, 72 h (assay: L. donovani intracellular amastigote growth inhibitors, imaging, THP-1 host macrophages, single concentration (AID 977614);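 note: signal is the parasite per host cell ratio from DAPI stained kinetoplasts and nuclei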).
In the case of C[C@H](CO)N1C[C@H](C)[C@H](CN(C)Cc2ccc3cccnc3c2)OCc2cnnn2CCCC1=O, the AC50 is reported as > 10 µM (inactive).
In the case of COc1ccc(CN(C)C[C@H]2OCc3cnnn3CCCC(=O)N([C@H](C)CO)C[C@@H]2C)cc1, the AC50 is reported as > 10 µM (inactive).
In the case of O=S(=O)(c1ccc(F)cc1)N1C[C@H]2[C@@H](c3ccccc31)[C@H](CO)N2Cc1ccccc1Cl, the AC50 is reported as > 10 µM (inactive).
With CCCN1[C@H](CO)[C@H](c2ccc(C#CC(C)C)cc2)[C@@H]1CN(C)S(C)(=O)=O the AC50 was > 10 µM (inactive).
C[C@H]1CN([C@@H](C)CO)C(=O)CCCn2nncc2CO[C@H]1CN(C)S(=O)(=O)c1cn(C)cn1 was tested, and the AC50 was > 10 µM (inactive).
In the case of CCS(=O)(=O)N1[C@H](CO)[C@H](c2ccccc2)[C@H]1CN(C(C)=O)C1CCCC1, the AC50 is reported as > 10 µM (inactive).
CCC(=O)N1[C@@H](CO)[C@@H](c2ccccc2)[C@@H]1CN(CC)C(=O)c1cccc(F)c1 was tested, and the AC50 was > 10 µM (inactive).
COc1ccc(C(=O)N2C[C@@H]3[C@H](c4ccccc42)[C@@H](CO)N3Cc2ccccc2Cl)cc1 was tested, and the AC50 was > 10 µM (inactive).
COc1ccc(NC(=O)N(C)C[C@H]2OCc3cnnn3CCCC(=O)N([C@H](C)CO)C[C@H]2C)c(OC)c1 was tested, and the AC50 was > 10 µM (inactive).
For O=C(NC[C@H]1N[C@H](CO)[C@@H]1c1ccccc1)c1ccccc1F, the AC50 was > 10 µM (inactive).
CCCNC(=O)N1C[C@H]2[C@@H](c3ccccc31)[C@@H](CO)N2C(=O)Nc1ccccc1F was tested, and the AC50 was > 10 µM (inactive).
For C/C=C/c1ccc([C@H]2[C@@H](CO)N(C(=O)CC)[C@@H]2CN(C(=O)C2CC2)C(C)C)cc1, the AC50 was > 10 µM (inactive).
In the case of Cc1noc(C)c1S(=O)(=O)N(C)C[C@H]1OCc2cn(nn2)CCCC(=O)N([C@H](C)CO)C[C@@H]1C, the AC50 is reported as > 10 µM (inactive).
For C[C@H]1CN([C@@H](C)CO)C(=O)CCCn2nncc2CO[C@H]1CN(C)C(=O)Nc1cccc(Oc2ccccn2)c1, the AC50 was > 10 µM (inactive).
C[C@@H]1CN([C@@H](C)CO)C(=O)CCCn2cc(nn2)CO[C@@H]1CN(C)C(=O)NC1CCCCC1 was tested, and the AC50 was > 10 µM (inactive).
In the case of C[C@@H]1CN([C@H](C)CO)C(=O)CCCn2nncc2CO[C@@H]1CN(C)Cc1cccc2c1OCCCO2, the AC50 is reported as > 10 µM (inactive).
For CCN(C[C@@H]1[C@H](c2ccccc2)[C@@H](CO)N1C(=O)COC)S(C)(=O)=O, the AC50 was > 10 µM (inactive).
For C/C=C/c1ccc([C@@H]2[C@@H](CO)N(C(C)=O)[C@@H]2CN(CC)C(=O)CN(C)C)cc1, the AC50 was > 10 µM (inactive).
With CCN(C[C@@H]1[C@@H](c2ccccc2)[C@@H](CO)N1C(=O)COC)S(C)(=O)=O the AC50 was > 10 µM (inactive).
O=C(c1ccc2c(c1)OCO2)N1C[C@@H]2[C@H](c3ccccc31)[C@@H](CO)N2Cc1cccnc1 was tested, and the AC50 was > 10 µM (inactive).
C[C@@H]1CN([C@H](C)CO)C(=O)CCCn2nncc2CO[C@H]1CN(C)Cc1cccc2c1OCCCO2 was tested, and the AC50 was > 10 µM (inactive).
For CCCNC(=O)N1[C@@H]2CN(C(=O)c3ccncc3)c3ccccc3[C@@H]2[C@@H]1CO, the AC50 was > 10 µM (inactive).
With C[C@H](CO)N1C[C@H](C)[C@H](CN(C)C(=O)Nc2cccc(C(F)(F)F)c2)OCc2cn(nn2)CCCC1=O the AC50 was > 10 µM (inactive).
In the case of C[C@H](CO)N1C[C@H](C)[C@@H](CN(C)C(=O)c2ccc(N3CCN(C)CC3)cc2)OCc2cnnn2CCCC1=O, the AC50 is reported as > 10 µM (inactive).
For COc1ccccc1CN1[C@@H](CO)[C@@H]2c3ccccc3N(C(=O)c3cccnc3)C[C@@H]21, the AC50 was > 10 µM (inactive).
With C/C=C/c1ccc([C@H]2[C@@H](CO)N[C@@H]2CN(C(=O)c2ccccc2F)C(C)C)cc1 the AC50 was > 10 µM (inactive).
With Cc1noc(C)c1NC(=O)N(C)C[C@H]1OCc2cn(nn2)CCCC(=O)N([C@@H](C)CO)C[C@H]1C the AC50 was > 10 µM (inactive).
For CCN(C[C@H]1[C@H](c2ccccc2)[C@H](CO)N1C(C)=O)C(=O)NC1CCCC1, the AC50 was > 10 µM (inactive).
For O=C(NC[C@@H]1N[C@@H](CO)[C@@H]1c1ccccc1)c1ccccc1F, the AC50 was > 10 µM (inactive).
In the case of C[C@@H]1CN([C@H](C)CO)C(=O)CCCn2cc(nn2)CO[C@@H]1CN(C)S(=O)(=O)c1ccc(-n2cccn2)cc1, the AC50 is reported as > 10 µM (inactive).
CN1C[C@@H]2[C@H](c3ccccc31)[C@H](CO)N2S(=O)(=O)c1ccccc1 was tested, and the AC50 was > 10 µM (inactive).
COCC(=O)N1[C@H](CO)[C@H](c2ccc(C#CC(C)C)cc2)[C@@H]1CNC(C)=O was tested, and the AC50 was > 10 µM (inactive).
With O=C(C1CCC1)N1C[C@@H]2[C@H](c3ccccc31)[C@H](CO)N2Cc1ccccc1 the AC50 was > 10 µM (inactive).
With CCCC(=O)N1C[C@@H]2[C@H](c3ccccc31)[C@@H](CO)N2C(=O)Nc1ccc(F)cc1 the AC50 was > 10 µM (inactive).
For C[C@@H]1CN([C@@H](C)CO)C(=O)CCCn2nncc2CO[C@@H]1CN(C)C(=O)c1ccc(N2CCN(C)CC2)cc1, the AC50 was > 10 µM (inactive).
For C/C=C/c1ccc([C@H]2[C@@H](CO)N(C(C)=O)[C@@H]2CNC(=O)c2ccccc2)cc1, the AC50 was > 10 µM (inactive).
With OC[C@@H]1[C@@H]2c3ccccc3NC[C@@H]2N1Cc1ccccc1Cl the AC50 was > 10 µM (inactive).
With O=C(NC[C@@H]1[C@H](c2ccccc2)[C@@H](CO)N1C(=O)Cc1ccncc1)C1CCC1 the AC50 was > 10 µM (inactive).
With O=C(c1ccccc1F)N1C[C@H]2[C@@H](c3ccccc31)[C@H](CO)N2C(=O)Nc1ccccc1 the AC50 was > 10 µM (inactive).
For COCC(=O)N1[C@@H](CO)[C@@H]2c3ccccc3NC[C@@H]21, the AC50 was > 10 µM (inactive).
With COc1ccc(NC(=O)N(C)C[C@@H]2OCc3cnnn3CCCC(=O)N([C@H](C)CO)C[C@@H]2C)c(OC)c1 the AC50 was > 10 µM (inactive).
For O=C(Cc1cccnc1)N1[C@H](CO)[C@H](c2ccccc2)[C@@H]1CNCC1CCC1, the AC50 was > 10 µM (inactive).
In the case of CC(=O)N1[C@@H](CO)[C@@H](c2ccccc2)[C@@H]1CN(CC1CCC1)C(=O)CN(C)C, the AC50 is reported as > 10 µM (inactive).
Cc1noc(C)c1NC(=O)N(C)C[C@H]1OCc2cnnn2CCCC(=O)N([C@@H](C)CO)C[C@H]1C was tested, and the AC50 was > 10 µM (inactive).
O=C(CC(F)(F)F)N1C[C@H]2[C@@H](c3ccccc31)[C@@H](CO)N2C(=O)c1ccncc1 was tested, and the AC50 was > 10 µM (inactive).
In the case of CCC(=O)N1[C@H](CN(CC)C(=O)c2cccc(F)c2)[C@@H](c2ccccc2)[C@@H]1CO, the AC50 is reported as > 10 µM (inactive).
CCCNC(=O)N1C[C@@H]2[C@H](c3ccccc31)[C@H](CO)N2C(=O)Nc1ccccc1F was tested, and the AC50 was > 10 µM (inactive).
For CN(C[C@@H]1[C@@H](c2ccccc2)[C@H](CO)N1CC1CC1)C(=O)c1ccc(F)cc1, the AC50 was > 10 µM (inactive).
With C[C@@H]1CN([C@H](C)CO)C(=O)CCCn2cc(nn2)CO[C@H]1CN(C)C(=O)Nc1ccc2c(c1)OCO2 the AC50 was > 10 µM (inactive).
In the case of COc1ccc(NC(=O)N(C)C[C@H]2OCc3cnnn3CCCC(=O)N([C@H](C)CO)C[C@@H]2C)c(OC)c1, the AC50 is reported as > 10 µM (inactive).
In the case of CCC(=O)N1[C@@H](CO)[C@@H]2c3ccccc3N(S(=O)(=O)c3ccc(F)cc3)C[C@@H]21, the AC50 is reported as > 10 µM (inactive).
For COCCNC[C@@H]1[C@@H](c2ccccc2)[C@@H](CO)N1c1nc(C)c(C)s1, the AC50 was > 10 µM (inactive).
For CC(C)CN(C[C@H]1N[C@H](CO)[C@@H]1c1ccccc1)C(=O)C1CCCCC1, the AC50 was > 10 µM (inactive).
O=C(NC[C@H]1N[C@H](CO)[C@H]1c1ccc(-c2ccccc2F)cc1)c1ccccn1 was tested, and the AC50 was > 10 µM (inactive).
C[C@H]1CN([C@@H](C)CO)C(=O)CCCn2nncc2CO[C@H]1CN(C)C(=O)CCC(F)(F)F was tested, and the AC50 was > 10 µM (inactive).
In the case of O=C(NC[C@@H]1[C@@H](c2ccccc2)[C@H](CO)N1C(=O)C1CCC1)NC1CCCC1, the AC50 is reported as > 10 µM (inactive).
COCC(=O)NC[C@@H]1[C@@H](c2ccccc2)[C@@H](CO)N1C(=O)c1ccccc1 was tested, and the AC50 was > 10 µM (inactive).
For COCCN(C[C@H]1[C@H](c2ccccc2)[C@H](CO)N1C(C)=O)C(=O)c1cccnc1, the AC50 was > 10 µM (inactive).
For O=C(CN1CCOCC1)N(CC1CCC1)C[C@H]1N[C@H](CO)[C@@H]1c1ccccc1, the AC50 was > 10 µM (inactive).
For O=S(=O)(NC[C@@H]1[C@@H](c2ccccc2)[C@@H](CO)N1CC1CC1)c1ccccc1, the AC50 was > 10 µM (inactive).
In the case of C[C@H]1CN([C@@H](C)CO)C(=O)CCCn2cc(nn2)CO[C@H]1CN(C)S(=O)(=O)c1cccc(C#N)c1, the AC50 is reported as > 10 µM (inactive).
With CC(=O)N1[C@H](CO)[C@@H]2c3ccccc3N(C(=O)c3ccc(F)cc3)C[C@@H]21 the AC50 was > 10 µM (inactive).
With C/C=C/c1ccc([C@@H]2[C@@H](CNC(=O)CC3CC3)N(C(=O)CC)[C@H]2CO)cc1 the AC50 was > 10 µM (inactive).
In the case of COc1ccc(C(=O)N2C[C@@H]3[C@H](c4ccccc42)[C@@H](CO)N3C(=O)Cc2ccccn2)cc1, the AC50 is reported as > 10 µM (inactive).
C[C@@H]1CN([C@H](C)CO)C(=O)CCCn2nncc2CO[C@@H]1CN(C)S(=O)(=O)c1cn(C)cn1 was tested, and the AC50 was > 10 µM (inactive).
For O=C(NC[C@H]1N[C@H](CO)[C@@H]1c1ccc(-c2ccccc2)cc1)c1cccc(F)c1, the AC50 was > 10 µM (inactive).
With O=S(=O)(c1ccccc1)N1[C@@H](CO)[C@@H]2c3ccccc3NC[C@@H]21 the AC50 was > 10 µM (inactive).
With C[C@H]1CN([C@@H](C)CO)C(=O)CCCn2nncc2CO[C@@H]1CN(C)C(=O)c1ccc2ccn(C)c2c1 the AC50 was > 10 µM (inactive).
With COCC(=O)NC[C@@H]1[C@H](c2ccccc2)[C@@H](CO)N1C(=O)c1ccccc1 the AC50 was > 10 µM (inactive).
In the case of COCC(=O)N1C[C@@H]2[C@H](c3ccccc31)[C@@H](CO)N2C(=O)c1ccccc1F, the AC50 is reported as > 10 µM (inactive).
C[C@H](CO)N1C[C@H](C)[C@@H](CN(C)Cc2ccccc2)OCc2cn(nn2)CCCC1=O was tested, and the AC50 was > 10 µM (inactive).
For CCC(=O)N1[C@H](CO)[C@@H]2c3ccccc3N(C(=O)c3cnccn3)C[C@@H]21, the AC50 was > 10 µM (inactive).
With CCN(C[C@H]1N[C@@H](CO)[C@@H]1c1ccccc1)C(=O)c1ccncc1 the AC50 was > 10 µM (inactive).
CCC(=O)N1[C@H](CO)[C@H](c2ccc(-c3cccc(OC)c3)cc2)[C@H]1CNC(C)=O was tested, and the AC50 was > 10 µM (inactive).
With CC(=O)N(CC1CCC1)C[C@@H]1N[C@@H](CO)[C@H]1c1ccc(C2=CCCC2)cc1 the AC50 was > 10 µM (inactive).
C/C=C/c1ccc([C@H]2[C@@H](CN(C)C(C)=O)N(C(=O)NC(C)C)[C@H]2CO)cc1 was tested, and the AC50 was > 10 µM (inactive).
CN(C[C@H]1[C@@H](c2ccccc2)[C@@H](CO)N1Cc1ccccn1)S(C)(=O)=O was tested, and the AC50 was > 10 µM (inactive).
